# In patent publication US6750228B1, “Aromatic sulfone hydroxamic acid metalloprotease inhibitor” (priority 1997, dated 2004):
# Structures can show the parent of a compound that is named as a salt. Where two headings read alike, the source gives them in different places.
# How the values were obtained:
# Test in all cases: biochemical
# [1] = target: T1, MMP-13 (Homo sapiens, UniProt P45452); settings: read-out: MMP-13 IC50
# T1 construct: made in house; host or cells: baculovirus / insect cells
# Method in brief: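 APMA- or trypsin-activated enzymes were preincubated with inhibitor for 5 min at room temperature, then the fluorogenic substrate MCA-Pro-Leu-Gly-Leu-Dpa-Ala-Arg-NH2 was added to a final 4 μM.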
# [2] = target: T2, MMP-2 (Homo sapiens, UniProt P08253)
# T2 construct: made in house; provided by Dr. Gregory Goldberg, Washington University
# T2 sequence (P08253 110-660): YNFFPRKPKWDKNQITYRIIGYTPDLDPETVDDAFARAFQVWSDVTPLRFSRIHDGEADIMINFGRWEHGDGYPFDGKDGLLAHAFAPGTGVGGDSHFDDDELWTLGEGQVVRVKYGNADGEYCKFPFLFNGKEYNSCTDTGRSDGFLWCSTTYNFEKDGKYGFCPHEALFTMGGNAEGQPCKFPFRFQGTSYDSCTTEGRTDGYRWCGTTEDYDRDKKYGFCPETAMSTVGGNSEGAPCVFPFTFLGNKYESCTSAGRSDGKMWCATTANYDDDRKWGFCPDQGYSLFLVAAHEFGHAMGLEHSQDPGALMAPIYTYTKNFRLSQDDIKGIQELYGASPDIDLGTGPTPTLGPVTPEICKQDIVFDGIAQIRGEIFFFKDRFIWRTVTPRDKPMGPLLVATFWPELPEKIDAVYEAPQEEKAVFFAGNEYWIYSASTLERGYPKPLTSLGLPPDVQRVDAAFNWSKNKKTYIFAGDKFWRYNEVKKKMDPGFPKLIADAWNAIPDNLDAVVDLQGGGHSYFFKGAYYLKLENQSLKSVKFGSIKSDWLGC
# Method in brief: (§1)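 APMA- or trypsin-activated human MMPs (MMP-1 from transfected HT-1080 cells, MMP-2 from transfected cells) preincubated with inhibitor in 1% DMSO at room temperature, then 4 μM MCA-Pro-Leu-Gly-Leu-Dpa-Ala-Arg-NH2 added in Tris/NaCl/CaCl2 buffer pH 7.5. IC50 from fluorescence reduction versus inhibitor concentration.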
# [3] = target: T3, MMP-1 (Homo sapiens, UniProt P03956); settings: read-out: MMP-1 IC50
# T3 construct: made in house; host or cells: transfected HT-1080 cells (provided by Dr. Harold Welgus, Washington University)
# T3 sequence (P03956 100-469): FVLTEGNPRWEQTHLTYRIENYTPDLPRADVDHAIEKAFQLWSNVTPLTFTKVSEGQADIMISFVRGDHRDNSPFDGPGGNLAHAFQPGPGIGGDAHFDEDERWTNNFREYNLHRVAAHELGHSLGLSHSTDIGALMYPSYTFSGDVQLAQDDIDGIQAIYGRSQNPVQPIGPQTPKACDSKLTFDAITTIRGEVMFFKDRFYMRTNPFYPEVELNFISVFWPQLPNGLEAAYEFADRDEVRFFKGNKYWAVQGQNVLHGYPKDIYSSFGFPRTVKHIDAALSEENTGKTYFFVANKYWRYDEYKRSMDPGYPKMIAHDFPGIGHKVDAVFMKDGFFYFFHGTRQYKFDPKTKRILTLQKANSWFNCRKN
# Method in brief: as §1
# [4] = recombinant human MMP-13, MCA peptide substrate 4 μM, pH 7.5, room temperature
# [5] = recombinant human MMP-2, MCA peptide substrate 4 μM, pH 7.5, room temperature, read-out: MMP-2 IC50
# [6] = recombinant human MMP-1, MCA peptide substrate 4 μM, pH 7.5, room temperature
SMILES,"IC50 [1, 4]","IC50 [2, 5]","IC50 [3, 6]",IC50 ([2]; MMP-2 IC50 (nM)),IC50 [3],IC50 [1],IC50 ([2]; read-out: MMP-2 IC50)
"O=C(NO)C1(S(=O)(=O)c2ccc(Oc3ccc(OC(F)(F)F)cc3)cc2)CCN(CCn2ccnc2)CC1 [Example 261, N-Hydroxy-1-[2-(1H-imidazol-1-yl)ethyl]-4-[[4-[4-(trifluoromethoxy)phenoxy]phenyl]sulfonyl]-4-piperidinecarboxamide, Dihydrochloride]",< 0.1 nM,< 0.1 nM,3700 nM,–,–,–,–
O=C(NO)C1(S(=O)(=O)c2ccc(N3CCC(OCc4ccc(OC(F)(F)F)cc4)CC3)cc2)CCOCC1 [Example 175],2.5 nM,290 nM,> 10000 nM,–,–,–,–
CCOc1ccc(NC(=O)OC2CCN(c3ccc(S(=O)(=O)C4(C(=O)NO)CCOCC4)cc3)CC2)cc1 [Example 190],4.7 nM,136 nM,> 10000 nM,–,–,–,–
CCCCCOc1ccc(COC2CCN(c3ccc(S(=O)(=O)C4(C(=O)NO)CCOCC4)cc3)CC2)cc1 [Example 477],11.3 nM,160 nM,> 10000 nM,–,–,–,–
O=C(NCC1CC1)C1CCN(c2ccc(S(=O)(=O)C3(C(=O)NO)CCOCC3)cc2)CC1 [Example 53],28.9 nM,1400 nM,> 10000 nM,–,–,–,–
O=C(c1ccc(OC(F)(F)F)cc1)C1CCN(c2ccc(S(=O)(=O)C3(C(=O)NO)CCOCC3)cc2)CC1 [Example 726],15.8 nM,250 nM,> 10000 nM,–,–,–,–
Cc1cccc(COC2CCC(Oc3ccc(S(=O)(=O)C4(C(=O)NO)CCOCC4)cc3)C2)c1 (stereo not drawn) [Example 651],13.7 nM,60 nM,> 10000 nM,–,–,–,–
CC1CC(C)CN(C(=O)C2CCN(c3ccc(S(=O)(=O)C4(C(=O)NO)CCN(C(=O)Cn5ccnc5)CC4)cc3)CC2)C1 (stereo not drawn) [Example 279],20 nM,7300 nM,> 10000 nM,–,–,–,–
CC(C)(C)OC1CCN(c2ccc(S(=O)(=O)C3(C(=O)NO)CCOCC3)cc2)CC1 [Example 693],210 nM,1900 nM,> 10000 nM,–,–,–,–
Cc1ccc(S(=O)(=O)N2CCN(c3ccc(S(=O)(=O)C4(C(=O)NO)CCOCC4)cc3)CC2)cc1 [Example 674],8 nM,110 nM,> 10000 nM,–,–,–,–
CC1CC(C)CN(C(=O)C2CCN(c3ccc(S(=O)(=O)C4(C(=O)NO)CCN(C(=O)CNCc5cccnc5)CC4)cc3)CC2)C1 (stereo not drawn) [Example 278],19.3 nM,> 10000 nM,> 10000 nM,–,–,–,–
O=C(Nc1cccc(Cl)c1)C1CCN(c2ccc(S(=O)(=O)C3(C(=O)NO)CCOCC3)cc2)CC1 [Example 70],10.6 nM,700 nM,> 10000 nM,–,–,–,–
O=C(CS(=O)(=O)c1ccc(Oc2ccncc2)cc1)NO [Example 227],28.8 nM,21.7 nM,> 10000 nM,–,–,–,–
CCOC1CCN(c2ccc(S(=O)(=O)C3(C(=O)NO)CCOCC3)cc2)CC1 [Example 166],32.7 nM,240 nM,> 10000 nM,–,–,–,–
N#Cc1ccc(S(=O)(=O)N2CCN(c3ccc(S(=O)(=O)C4(C(=O)NO)CCOCC4)cc3)CC2)cc1 [Example 690],7.3 nM,41.8 nM,> 10000 nM,–,–,–,–
COC[C@@H]1CCN(c2ccc(S(=O)(=O)C3(C(=O)NO)CCOCC3)cc2)C1 [Example 529],8800 nM,> 10000 nM,> 10000 nM,–,–,–,–
O=C(NO)C1(S(=O)(=O)c2ccc(N3CCC(c4ccccc4O)CC3)cc2)CCOCC1 [Example 825],11.3 nM,–,–,70 nM,> 10000 nM,–,–
CC(C)CCOc1ccc(COC2CCN(c3ccc(S(=O)(=O)C4(C(=O)NO)CCOCC4)cc3)CC2)cc1 [Example 478],16.4 nM,306 nM,> 10000 nM,–,–,–,–
O=C(C1CCN(c2ccc(S(=O)(=O)C3(C(=O)NO)CCOCC3)cc2)CC1)N1CCN(c2nccc(C(F)(F)F)n2)CC1 [Example 49],–,–,–,–,> 10000 nM,20 nM,6500 nM
COCCN1CCC(C(=O)NO)(S(=O)(=O)c2ccc(N3CCC(OCc4ccc(Cl)cc4)CC3)cc2)CC1 [Example 445],90 nM,1200 nM,> 10000 nM,–,–,–,–
